Data reported in ChEMBL document CHEMBL1201862, “PubChem BioAssay data set” (2004).
Where “and” joins values, the source holds several entries; their conditions need not be identical. Equal values may be shown once.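 Compound exposure: 48 hours, 5 concentrations, 96-well plates. Here, GI50 denotes the concentration required for 50% inhibition of growth.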 Calls of active or inactive are those of the source. Cut-off read from the data, not from the text of the source: active = GI50 up to about 1.1 µM and inactive = higher.

What was measured:
Assay in all cases: growth of human tumour cells (NCI), 48 h
[1] = test system: OVCAR-5
[2] = test system: SF-295
[3] = test system: MOLT-4
[4] = test system: UO-31
[5] = test system: HOP-92
[6] = test system: SNB-19
[7] = test system: HCT-15
[8] = test system: Malme-3M
[9] = test system: OVCAR-3
[10] = test system: A549
[11] = test system: HCT-116
[12] = test system: NCI-H226
[13] = test system: SNB-75
[14] = test system: CCRF-CEM
[15] = test system: M14
[16] = test system: HL-60
[17] = test system: SK-OV-3
[18] = test system: LOX IMVI
[19] = test system: UACC-62

| SMILES | GI50 [1] | GI50 [2] | GI50 [3] | GI50 [4] | GI50 [5] | GI50 [6] | GI50 [7] [µM] | GI50 [8] | GI50 [9] | GI50 [10] | GI50 [11] | GI50 [12] | GI50 [13] | GI50 [14] | GI50 [15] | GI50 [16] | GI50 [17] | GI50 [18] | GI50 [19] |
| --- | --- | --- | --- | --- | --- | --- | --- | --- | --- | --- | --- | --- | --- | --- | --- | --- | --- | --- | --- |
| COC(=O)c1ccc(Cl)cc1NC(=O)C1CCCCC1 | > 100 µM (inactive) | > 100 µM (inactive) | > 100 µM (inactive) | 3.53 µM (inactive) | > 100 µM (inactive) | > 100 µM (inactive) | > 100 | > 100 µM (inactive) | > 100 µM (inactive) | > 100 µM (inactive) | > 100 µM (inactive) | > 100 µM (inactive) | – | – | – | – | – | – | – |
| CCO/C([O-])=C(\C(=O)c1ccccc1)[n+]1c(C)n(C)c2ccccc21 | > 100 µM (inactive) | > 100 µM (inactive) | > 100 µM (inactive) | > 100 µM (inactive) | – | > 100 µM (inactive) | > 100 | > 100 µM (inactive) | > 100 µM (inactive) | > 100 µM (inactive) | > 100 µM (inactive) | > 100 µM (inactive) | > 100 µM (inactive) | > 100 µM (inactive) | > 100 µM (inactive) | > 100 µM (inactive) | > 100 µM (inactive) | > 100 µM (inactive) | > 100 µM (inactive) |
| C=C1C(C)C2C(Cc3ccccc3)NC(=O)C23OC(=O)/C=C\CC(=O)CCC(C)C/C=C/C3C1O (centres undefined) | 8.69 µM (inactive) | 2.54 µM (inactive) | 0.91 µM (active) | 0.512 µM (active) | 0.581 µM (active) | 2.6 µM (inactive) | 1.28 | 1.82 µM (inactive) | 1.82 µM (inactive) | 4.41 µM (inactive) | 2.54 µM (inactive) | 1.92 µM (inactive) | 0.413 µM (active) | – | – | – | 6.05 µM (inactive) | 0.875 µM (active) | 2.45 µM (inactive) |
| C[Si](C)(C)OC1CC(=O)OC1n1cc(F)c(=O)[nH]c1=O (centres undefined) | > 89.9 µM (inactive) | > 76.9 µM (inactive) | 17.8 µM (inactive) | 13 µM (inactive) | – | > 55.1 µM (inactive) | 9.44 | 19.2 µM (inactive) | 52.8 µM (inactive) | 4.38 µM (inactive) | 5.79 µM (inactive) | > 86.9 µM (inactive) | 65.9 µM (inactive) | 18.2 µM (inactive) | 48.6 µM (inactive) | 9.71 µM (inactive) | > 95.7 µM (inactive) | 7.94 µM (inactive) | 10.8 µM (inactive) |
| COc1cccc2c1C(=O)c1c(O)c3c(c(O)c1C2=O)C[C@@](O)(C(=O)CO)C[C@@H]3OC1CC(N)C(O)C(C)O1 (some centres undefined) | 658 nM (active) and 733 nM (active) | – | 16.9 nM (active) and 10 nM (active) | – | – | 54.3 nM (active) and 92 nM (active) | – | – | 394 nM (active) and 474 nM (active) | 74.1 nM (active) and 80.2 nM (active) | 66.5 nM (active) and 72.6 nM (active) | < 43.6 nM (active) and 58.1 nM (active) | – | 34.8 nM (active) and 44.9 nM (active) | – | 60.5 nM (active) and 57 nM (active) | 0.414 µM (active) | 52.1 nM (active) and 44.4 nM (active) | – |
| Cc1nn(C(=O)CC(=O)Nc2ccc(Cl)cc2)c(C)c1/N=N/c1ccccc1C(=O)O | > 100 µM (inactive) | > 100 µM (inactive) | > 100 µM (inactive) | > 100 µM (inactive) | – | > 100 µM (inactive) | > 100 | > 100 µM (inactive) | > 100 µM (inactive) | > 100 µM (inactive) | > 100 µM (inactive) | – | 39.5 µM (inactive) | > 100 µM (inactive) | > 100 µM (inactive) | > 100 µM (inactive) | > 100 µM (inactive) | > 100 µM (inactive) | > 100 µM (inactive) |
| O=C1CCC2(c3ccc(Cl)cc3)Nc3cc(Cl)ccc3N12 (centres undefined) | – | 9.04 µM (inactive) | – | 15.6 µM (inactive) | – | 16.4 µM (inactive) | 12.2 | 10.7 µM (inactive) | 10.4 µM (inactive) | 11.5 µM (inactive) | 7.06 µM (inactive) | – | 12.2 µM (inactive) | 2.42 µM (inactive) | 15.2 µM (inactive) | 1.15 µM (inactive) | 17.6 µM (inactive) | 12.1 µM (inactive) | 8.97 µM (inactive) |
| CC1(C(=O)NCCN(CCNC(=O)C2(C)CC3(C)CC(C)(C2)C(=O)NC3=O)CCNC(=O)C2(C)CC3(C)CC(C)(C2)C(=O)NC3=O)CC2(C)CC(C)(C1)C(=O)NC2=O (centres undefined) | – | > 100 µM (inactive) | > 100 µM (inactive) | > 100 µM (inactive) | < 0.01 µM (active) | > 100 µM (inactive) | > 100 | – | > 100 µM (inactive) | > 100 µM (inactive) | > 100 µM (inactive) | – | > 100 µM (inactive) | > 100 µM (inactive) | > 100 µM (inactive) | > 100 µM (inactive) | > 100 µM (inactive) | – | > 100 µM (inactive) |
| COC1OC(COS(=O)(=O)c2ccc(C)cc2)C(O)C(OS(=O)(=O)c2ccc(C)cc2)C1OS(=O)(=O)c1ccc(C)cc1 (centres undefined) | > 100 µM (inactive) | > 100 µM (inactive) | > 100 µM (inactive) | > 100 µM (inactive) | – | > 100 µM (inactive) | > 100 | > 100 µM (inactive) | > 100 µM (inactive) | > 100 µM (inactive) | > 100 µM (inactive) | > 100 µM (inactive) | 95.9 µM (inactive) | > 100 µM (inactive) | > 100 µM (inactive) | > 100 µM (inactive) | > 100 µM (inactive) | – | – |
| CC(=O)n1c2ccccc2c2nc3nc(Oc4ccc(C)cc4)c4ccccc4c3cc21 | > 100 µM (inactive) | 66.2 µM (inactive) | > 100 µM (inactive) | > 100 µM (inactive) | – | 92 µM (inactive) | > 100 | > 100 µM (inactive) | > 100 µM (inactive) | > 100 µM (inactive) | > 100 µM (inactive) | > 100 µM (inactive) | 44.2 µM (inactive) | > 100 µM (inactive) | > 100 µM (inactive) | – | > 100 µM (inactive) | > 100 µM (inactive) | > 100 µM (inactive) |
| Cc1nc2c(s/c(=N\N)n2-c2ccccc2)c(=O)n1C | > 100 µM (inactive) | > 100 µM (inactive) | > 100 µM (inactive) | > 100 µM (inactive) | > 100 µM (inactive) | > 100 µM (inactive) | > 100 | – | – | > 100 µM (inactive) | > 100 µM (inactive) | > 100 µM (inactive) | > 100 µM (inactive) | > 100 µM (inactive) | > 100 µM (inactive) | > 100 µM (inactive) | > 100 µM (inactive) | > 100 µM (inactive) | > 100 µM (inactive) |
| Cc1nc2c(n1CCN(C)C)C(=O)c1ccccc1C2=O | – | 15.7 µM (inactive) | 19.7 µM (inactive) | 21 µM (inactive) | – | 27.7 µM (inactive) | 12.8 | 2.84 µM (inactive) | 7.03 µM (inactive) | 18.8 µM (inactive) | 14.5 µM (inactive) | 31.6 µM (inactive) | 33.1 µM (inactive) | 17.7 µM (inactive) | 11.8 µM (inactive) | 5.3 µM (inactive) | 45.8 µM (inactive) | 14.9 µM (inactive) | 11.9 µM (inactive) |
